From ChEMBL document CHEMBL4814018, “Rationally designed TNF-α inhibitors: Identification of promising cytotoxic agents” (Bioorg Med Chem Lett, 2021)
Activity calls are given as the source filed them. The rule behind the calls is not given here.

How the values were obtained:
[1] = Therapeutic index, ratio of LC50 for human Panel NCI-60 (60 carcinoma cell lines) to GI50 for human Panel NCI-60 (60 carcinoma cell lines); format: functional
[2] = tested on: BV-2; experiment: Antiinflammatory activity against mouse BV2 cells assessed as inhibition of LPS-induced TNFalpha production at 1 uM by enzyme immunoassay; format: functional
[3] = tested on: BV-2; experiment: Antiinflammatory activity against mouse BV2 cells assessed as reduction in LPS-induced IL6 production at 1 uM by enzyme immunoassay; format: functional, cell-based
[4] = tested on: BV-2; experiment: Cytotoxicity against mouse BV2 cells incubated for 48 hrs by MTT assay; format: cell-based; conditions: BV-2, 48 h

Row | SMILES | TI [1] | Activity [2] | Activity [3] | IC50 [4] [µM]
1 | O=c1[nH]cc(F)c(=O)[nH]1 [FLUOROURACIL] | >133 | – | – | –
2 | O=C1COCCN1c1ccc(N2C(=O)C(Cl)C2c2cn(Cc3ccc4ccccc4c3)c3ccccc23)cc1 (centres undefined) | – | Active | Active | > 10
